Reference: ChEMBL document CHEMBL1240402 (2010)
Values after ≈ are worked out from the molar mass of the structure shown.

System: Clostridium perfringens

Compound | MIC [µg/mL]
CS(=O)(=O)c1ccc([C@@H](O)[C@@H](CF)NC(=O)C(Cl)Cl)cc1 [FLORFENICOL] | 16 (≈ 44.7 µM)
CC(=O)NC[C@H]1CN(c2ccc(N3CCOCC3)c(F)c2)C(=O)O1 [LINEZOLID] | 64 (≈ 190 µM)
